We go through one compound from paper PMC10636171 (Cell Death & Disease, 2023).

One data set has as its system MKN45 xenograft tumor. As to the kind of experiment: MKN45 xenograft tumor model. In kind it is in vivo, BALB/c nude mice. The following applies: 8 mg/kg/d, ig. Here is the method:
(§1) Male BALB/c nude mice (5-week old, 18–20 g) were purchased from Beijing Vital River Laboratory Animal Technology (Beijing Vital River LaboratoryAnimal Technology Co., Ltd., Beijing,China) and allowed to acclimate for 1 week, maintained at constant room temperature and fed a standard rodent chow and water. 1 × 10^7 cells/mL cancer cells grown in logarithmic phase were harvested and resuspended in FBS-free 1640 medium. Then, 100 μL of the cell suspension was subcutaneously injected into the right flank of each mouse. When the tumour volume was reached about 600–800 mm^3, it was removed, minced into small pieces of equal volume (2 × 2 × 2 mm^3), and transplanted subcutaneously into the nude mice. When the tumour volume was reached about 200–400 mm^3, the xenograft tumour-bearing nude mice were randomly allocated to five groups (vehicle-treated, 1D228-2mgd-treated, 1D228-4mgd-treated […] Tepotinib-treated groups, with 6 or 8 mice (The number of mice were determined according to previous experience on xenograft tumor models) per group. Each group was dosed by intragastric administration (ig) for 7–14 days. Tumour volume and body weights were recorded every day after drug treatment. At the end of the observation period, the animals were euthanized by cervical dislocation and the tumour bulks were peeled off conformed to the Guide for the Care and Use of Laboratory Animals as published by the US National Institutes of Health (NIH Publication No. 85-23, revised 1996) and approved by the Institutional Ethics Review Board of Binzhou Medical University. There was no blinding was done during the animal experiment. No animals were excluded from the analysis.

A further data set relates to 284 kinases. More on the design: method as in PMID 25736998. The following applies: 100 nM; 284 kinases tested; cited from earlier work.
The test system of a further data set is MHCC97H xenograft tumor. The experiment in a line: MHCC97H xenograft tumor model. In kind it is in vivo, BALB/c nude mice. The following applies: Tepotinib group (dose not given), ig, calculated through tumor weight. Here is the method:
as §1

Data set [1] is described as follows: Liver microsomal stability assay. Format: in vitro ADME. Particulars: liver microsomes, pH 7.4. Here is the method: The incubation system (including 0.1 M PH 7.4 phosphate buffer, NADPH generation system, UGT incubation system, 0.5 mg/mL liver microsomal protein and appropriate concentration of drug to be tested) was incubated in a water bath at 37 °C for […]. Each sample was incubated three times in parallel, and an equal volume of pre-chilled acetonitrile was added at preset reaction time points, such as 0, 5, 10, 15, 30 and 60 min. The reaction was terminated by the addition of acetonitrile. The remaining content of the prototype drug in the warm incubation solution was determined by HPLC, HPLC-MC and HPLC-MC/MC.
In general terms: Liver microsomes are a subcellular fraction often used to study metabolism.

The next data set concerns ASPC1. The experiment in a line: CCK8 antiproliferative assay. Particulars: Homo sapiens, ASPC1, 72 h, read-out: IC50, cell proliferation. Format: cell-based. Here is the method: (§2) For cytotoxicity assay, the cells grown in the logarithmic phase were seeded into 96-well plates (7 × 10^3 cells/well) for 24 h, then exposed to different concentrations (10, 5, 1, 0.1, 0.01 and 0.001 μM) of the test compounds for 72 h. After attached cells were incubated with CCK8 (Sigma, USA) for another 1–4 h. Then the absorbance at 450 nm was measured using a multifunction microplate reader (Molecular Devices, Flex Station 3), and each experiment was performed at least in triplicate.
For orientation: Tetrazolium assays rely on reduction of a dye to a coloured formazan, in cell work by metabolically active cells.

The subject of the next data set is MKN45. The experiment in a line: CCK8 antiproliferative assay. In kind it is cell-based. Particulars: Homo sapiens, MKN-45, 72 h, read-out: IC50, cell proliferation. Here is the method: as §2
In another data set the test system is HS746T. The experiment in a line: CCK8 antiproliferative assay. Particulars: Homo sapiens, Hs746T, 72 h, read-out: IC50, cell proliferation. In kind it is cell-based. Here is the method: as §2

The TGI is the reduction of tumour growth relative to the control group. Low readings indicate a weaker effect on the tumour, high ones a stronger effect on the tumour. By half-life is commonly meant how long it takes for the measured level to halve. High values mean slow decline, low ones rapid decline. `CN1CCC(COc2cnc(-c3cccc(Cn4nc(-c5cccc(C#N)c5)ccc4=O)c3)nc2)CC1` [Tepotinib, reference compound] displayed a TGI with MKN45 xenograft tumor of 67.61%. In addition, in the data set on 284 kinases, the “Inhibition of kinases other than c-Met” value is on record as “not able to inhibit any other kinase”. For the same compound, in the data set with MHCC97H xenograft tumor, the “Tumor growth inhibition (TGI)” value is 63.9%. Also, the half-life in data set [1] (Sprague-Dawley, rat, SD rats liver microsome) was determined as 0.301 h; in data set [1] (cynomolgus monkey, Macaca fascicularis liver microsome) it was 22.5 h; in data set [1] (dog, Beagle liver microsome) it was 1.04 h; in data set [1] (Human liver microsome) it was 30.5 h; in data set [1] (mouse, CD - 1 mice liver microsome), 0.252 h. The IC50 in the data set with ASPC1 stood at 3.78 µM; in the data set on MKN45, 0.00165 µM; in the data set with HS746T it was 3.6 µM.
